{"source": "patent US20090165150A1", "about": "“DIRECTED COMPLEMENTATION WITH REMOVABLE GENE OF INTEREST” (priority 2007, published 2009)", "key": {"BHc tumors": {"tested_on": "BHc tumors", "assay": "Xenograft of archived BHc tumor in NCR nude mice maintained on doxycycline", "format": "in vivo, mouse", "conditions": "5 mice bearing BHc tumors, Tamoxifen IP for 8 consecutive days", "description": "(§1) Tamoxifen treatment: To activate CreER^T2 and induce Cre mediated recombination (i.e., excision) between loxP sites, animals were treated with 0.1 ml tamoxifen (10 mg/ml in corn oil) through intraperitoneal (IP) injection for […].\n(§2) About 0.1 million DC tumor cells were injected subcutaneously into 10 NCR nude mice on the right flank. These mice were maintained off doxycycline. Similarly 10 NCR nude mice were inoculated with archived BHc tumor and maintained on doxycycline. These mice were divided into 4 groups.\nThe second group contained of 5 mice bearing BHc tumors. They were treated with Tamoxifen for 8 consecutive days."}, "DC tumors": {"tested_on": "DC tumors", "assay": "Xenograft of DC tumor cells (pL-Her2^YVMA complemented) in NCR nude mice maintained off doxycycline", "format": "in vivo, mouse", "conditions": "5 mice bearing DC tumors, Tamoxifen IP for 8 consecutive days, observed up to a month, untreated group had tumors within 10 days", "description": "Minced DC tumor was thawed at 37° C. and cells were dissociated by passing through cell strainers (100 μm filters, BD Falcon Cat. No. 352360). The cells were collected and centrifuged at 1000 rpm for 5 minutes, washed twice with PBS and counted using hemocytometer and resuspended in one part PBS (Gibco Cat. No. 24020-117) to one part Matrigel (BD Cat. No. 3542334) for injections.\nas §1, §2\nThe fourth group contained of 5 mice bearing DC tumors. They were treated with Tamoxifen for 8 consecutive days."}}}
{"smiles": "CC/C(=C(\\c1ccccc1)c1ccc(OCCN(C)C)cc1)c1ccccc1", "note": "[Tamoxifen, tamoxifen]", "values": [{"measurement": "tumor growth compared with untreated group", "setting": "BHc tumors", "value": "grew slower than group 1"}, {"measurement": "time until tumors were observed", "setting": "BHc tumors; all 5 mice, untreated group within 10 days", "value": "≤ 12", "unit": "days"}, {"measurement": "tumor formation", "setting": "DC tumors", "value": "Tumors were never observed"}]}
